{
  "source": "patent US20210369720A1",
  "about": "“SYNERGISTIC COMPOSITION HAVING NEUROPROTECTIVE PROPERTIES AND METHODS OF USE THEREOF” (Rutgers, The State University of New Jersey, priority 2018, published 2021)",
  "key": {"[1]": {"system": "Syn^Tg mice", "assay": "Wire Hang test, Syn^Tg mice", "type": "in vivo", "details": "EHT 12 mg/kg/day in chow and/or caffeine 50 mg/kg/day in drinking water from weaning until six months of age, vs untreated Syn^Tg mice", "from_the_text": "(§1) Thy1-α-synuclein transgenic mice (Syn^Tg) on BDF1 background overexpressing human wild-type α-synuclein under the control of the Thy1 promoter were maintained by mating heterozygous transgenic females with WT BDF1 males (Rockenstein E, et al. (2002) Differential neuropathological alterations in transgenic mice expressing alpha-synuclein from the platelet-derived growth factor and Thy-1 promoters. J Neurosci Res 68(5):568-578). BDF1 mice (mixed C57BL/6-DBA/2) were generated every three months by mating female C57BL/6 (The Jackson Laboratory) and male DBA/2 mice (Charles River). Experiments were performed with male transgenic mice and their WT littermates. […] Wild-type littermates received regular water and control chow. […] At two months of age, mice were inoculated with α-Syn PFF unilaterally in the striatum. These treatments continued throughout the experiment until animals were sacrificed. Mice were weighed and their food and water intake was quantified weekly. Animals were housed 2-5/cage in an AAALAC approved facility in a temperature- and humidity-controlled environment under a 12-hour light/dark cycle and were maintained on a diet of lab chow and water ad libitum. […]"}, "[2]": {"system": "p-α-Syn", "assay": "Western blot of p-α-Syn in SH-SY5Y cells challenged with α-Syn PFF", "type": "cell-based, Human", "details": "SH-SY5Y cells challenged with mouse α-Syn PFF for 7 days; caffeine and/or EHT added to the medium", "protocol": "Human neuroblastoma SH-SY5Y cells were cultured in DMEM-F12 with 10% FBS. At 50% confluency, cells were treated with 1 gg/ml mouse α-Syn PFF in DMEM-F12 with 1% FBS for 7 days. Medium was refreshed every 3 days. Cell harvesting was done with 2% SDS in PBS supplemented with protease inhibitor (Millipore) and phosphatase inhibitor (Sigma-Aldrich). Lysates were sonicated and boiled at 95° C. for 5 minutes. Protein concentration was determined by bicinchonic acid (BCA) method (Pierce), equal amount of protein was separated on 5-20% SDS-PAGE gel (Genescript) and transferred to nitrocellulose or PVDF membrane (Biorad). Following transfer, membranes were blocked for 1 hour at room temperature in blocking buffer (Li-Cor) or 5% (w/v) BSA/TBS-Tween 0.1% (v/v). Primary antibodies were diluted in blocking buffer or 5% (w/v) BSA/TBS-Tween 0.1% (v/v) and incubated with the membranes at 4° C. overnight. Membranes were washed three times in TBS-Tween and incubated in diluted IRDye 800CW or HRP conjugated secondary antibody for 1 hour at room temperature. Following washing, membranes were scanned by Li-Cor Odyssey CLx infrared imaging system or treated with the Western Lightning ECL-plus reagents (PerkinElmer) and exposed to autoradiography films (LabScientific)."}, "[3]": {"system": "phosphorylated α-synuclein (p-α-Syn)", "assay": "Immunohistochemical staining of p-α-Syn, α-Syn PFF inoculated WT mice", "type": "in vivo", "details": "EHT 12 mg/kg/day and/or caffeine 50 mg/kg/day", "from_the_text": "Thy1-α-synuclein transgenic mice (Syn^Tg) on BDF1 background overexpressing human wild-type α-synuclein under the control of the Thy1 promoter were maintained by mating heterozygous transgenic females with WT BDF1 males (Rockenstein E, et al. (2002) Differential neuropathological alterations in transgenic mice expressing alpha-synuclein from the platelet-derived growth factor and Thy-1 promoters. J Neurosci Res 68(5):568-578). BDF1 mice (mixed C57BL/6-DBA/2) were generated every three months by mating female C57BL/6 (The Jackson Laboratory) and male DBA/2 mice (Charles River). Experiments were performed with male transgenic mice and their WT littermates. […] Wild-type littermates received regular water and control chow. […] At two months of age, mice were inoculated with α-Syn PFF unilaterally in the striatum. These treatments continued throughout the experiment until animals were sacrificed. Mice were weighed and their food and water intake was quantified weekly. Animals were housed 2-5/cage in an AAALAC approved facility in a temperature- and humidity-controlled environment under a 12-hour light/dark cycle and were maintained on a diet of lab chow and water ad libitum. All animal procedures were approved by the Rutgers-Robert Wood Johnson Medical School Institutional Animal Care and Use Committee and were performed according to the National Institutes of Health Guide for the Care and Use of Laboratory Animals.\nα-Syn PFF solution was sonicated at 60% amplitude 30 times (0.5 sec on, 0.5 sec off). During the stereotactic surgery, two month old WT C57BL/6 mice were anesthetized by Ketamine/xylazine (90/4.5 mg/kg, i.p., Ketaset from Zoetis, and Anased from Akorn) and positioned in a digital stereotaxic apparatus (Stoelting, Wood Dale, Ill.). A midline sagittal incision was made in the scalp, and a hole was drilled in the skull over the right striatum according to the coordinates below. All injections were made using a Hamilton neuros syringe equipped with a 33 gauge needle and attached to a Quintessential Stereotaxic Injector (Stoelting, Wood Dale, Ill.). A total of 5∝g/2.5 ul of α-Syn PFF was infused in the dorsal striatum (+0.2 mm relative to Bregma, +2.0 mm from midline, +2.6 mm beneath the dura) at a delivery rate of 0.2∝l/min (61). The needle was kept in place for 5 min following the infusion to prevent reflux before withdrawing.\nImmunohistochemical analyses were performed as described previously (Lee et al., 2011; 2012). Mice were perfused transcardially with PBS, and brains were removed and post-fixed in 10% formalin at 4° C. overnight. Fixed brains were then sectioned coronally in 30 am thickness using a cryostat and collected as sets of slices with the same interval. Free-floating sections were blocked by 1% BSA and 0.2% Triton X100 in PBS. Sections were then incubated with primary antibody overnight at 4° C. and biotinylated secondary antibody for 1 hour at room temperature.\nVectastain elite ABC kit (Vector Laboratories, Burlingame, Calif.) and 3,3′-diaminobenzidine (Sigma-Aldrich) were used for amplifying and color development. Images were captured by Nikon Eclipse 55i. Staining intensity and phosphorylated α-synuclein (p-α-Syn) aggregate counts were obtained by Image Pro Plus. Intensity calibration was set to the level of a blank area in each image. HSI (hue, saturation and intensity) was used for the color selection with the standard parameters of H: 0-30, S: 0-255 and I: 0-160. […]"}, "[4]": {"system": "Iba-1", "assay": "Immunohistochemical staining of Iba-1 in the striatum, α-Syn PFF inoculated WT mice", "type": "in vivo", "details": "EHT 12 mg/kg/day and/or caffeine 50 mg/kg/day, vs untreated α-Syn PFF inoculated group", "from_the_text": "as §1"}, "[5]": {"system": "α-Syn PFF inoculated WT mice", "assay": "Wire Hang test, α-Syn PFF inoculated WT mice", "type": "in vivo", "details": "EHT 12 mg/kg/day in diet and/or caffeine 50 mg/kg/day in drinking water from weaning, 6 months post-inoculation", "from_the_text": "as §1"}, "[6]": {"system": "Syn^Tg mice", "assay": "Nesting behavior, Syn^Tg mice", "type": "in vivo", "details": "EHT 12 mg/kg/day in chow and/or caffeine 50 mg/kg/day in drinking water from weaning until six months of age, vs untreated Syn^Tg mice", "from_the_text": "as §1"}, "[7]": {"details": "vs untreated α-Syn PFF inoculated mice"}},
  "data": [
    {"smiles": "CCCCCCCCCCCCCCCCCCCC(=O)NCCc1c[nH]c2ccc(O)cc12", "note": "[EHT, eicosanoyl-5-hydroxytryptamide]", "values": [
      {"measurement": "performance on the wire hang test", "setting": "[1]", "value": "did so only on the Wire Hang test"},
      {"measurement": "p-α-Syn levels", "setting": "[2]", "value": "reduced it partially"},
      {"measurement": "p-α-Syn immunoreactivity in the ipsilateral nigra", "setting": "[3]", "value": "less abundant"},
      {"measurement": "p-α-Syn in the contralateral striatum", "setting": "[3]; [7]", "value": "partially but insignificantly reduced"},
      {"measurement": "p-α-Syn in the ipsilateral striatum", "setting": "[3]; [7]", "value": "partially but insignificantly reduced"},
      {"measurement": "microglial activation (Iba-1) in the contralateral striatum", "setting": "[4]", "value": "only a partial effect that was statistically insignificant"},
      {"measurement": "microglial activation (Iba-1) in the ipsilateral striatum", "setting": "[4]", "value": "only a partial effect that was statistically insignificant"},
      {"measurement": "performance on the wire hang test", "setting": "[5]", "value": "improved performance"},
      {"measurement": "nesting behavior", "setting": "[6]", "value": "did not improve performance"}
    ]}
  ]
}
